Results published in patent US20200179312A1, “ANALOGUES OF CYSTEAMINE AS THERAPEUTIC AGENTS FOR CYSTIC FIBROSIS” (I.E.R.F.C. EUROPEAN INSTITUTE FOR CYSTIC FIBROSIS RESEARCH, priority 2018, published 2020).

Key:
TG2 = target: T1, TG2 (Homo sapiens, UniProt P21980); assay: Inhibition of the PDI activity of TG2; format: biochemical
T1 sequence (P21980 1-687): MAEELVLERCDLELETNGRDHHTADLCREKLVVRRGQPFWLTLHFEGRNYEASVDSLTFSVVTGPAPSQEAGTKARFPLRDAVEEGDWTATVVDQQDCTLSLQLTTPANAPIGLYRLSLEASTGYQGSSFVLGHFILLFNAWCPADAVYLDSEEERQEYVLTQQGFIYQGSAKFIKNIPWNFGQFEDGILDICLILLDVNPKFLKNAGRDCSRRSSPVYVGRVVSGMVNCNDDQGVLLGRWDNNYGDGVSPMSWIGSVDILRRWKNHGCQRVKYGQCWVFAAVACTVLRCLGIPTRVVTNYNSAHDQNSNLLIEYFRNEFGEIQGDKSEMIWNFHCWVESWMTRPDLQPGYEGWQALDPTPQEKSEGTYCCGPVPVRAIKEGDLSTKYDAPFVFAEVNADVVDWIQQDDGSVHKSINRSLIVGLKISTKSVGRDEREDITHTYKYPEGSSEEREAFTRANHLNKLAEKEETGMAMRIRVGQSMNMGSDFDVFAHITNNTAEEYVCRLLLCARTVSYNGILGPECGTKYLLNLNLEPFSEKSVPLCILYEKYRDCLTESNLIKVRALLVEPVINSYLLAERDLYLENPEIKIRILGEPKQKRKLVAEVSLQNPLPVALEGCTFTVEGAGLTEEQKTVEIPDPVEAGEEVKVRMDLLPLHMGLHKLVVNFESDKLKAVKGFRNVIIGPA

F508delCFTR [1] = target: T2, F508delCFTR (Homo sapiens, UniProt P13569, DEL508-508); assay: SPQ assay in CFBE41o- cells transfected with F508delCFTR; format: cell-based; design: expressed in transfected cells; host or cells: CFBE41o- cells
T2 sequence (P13569 with tags, fused parts or gaps DEL508-508): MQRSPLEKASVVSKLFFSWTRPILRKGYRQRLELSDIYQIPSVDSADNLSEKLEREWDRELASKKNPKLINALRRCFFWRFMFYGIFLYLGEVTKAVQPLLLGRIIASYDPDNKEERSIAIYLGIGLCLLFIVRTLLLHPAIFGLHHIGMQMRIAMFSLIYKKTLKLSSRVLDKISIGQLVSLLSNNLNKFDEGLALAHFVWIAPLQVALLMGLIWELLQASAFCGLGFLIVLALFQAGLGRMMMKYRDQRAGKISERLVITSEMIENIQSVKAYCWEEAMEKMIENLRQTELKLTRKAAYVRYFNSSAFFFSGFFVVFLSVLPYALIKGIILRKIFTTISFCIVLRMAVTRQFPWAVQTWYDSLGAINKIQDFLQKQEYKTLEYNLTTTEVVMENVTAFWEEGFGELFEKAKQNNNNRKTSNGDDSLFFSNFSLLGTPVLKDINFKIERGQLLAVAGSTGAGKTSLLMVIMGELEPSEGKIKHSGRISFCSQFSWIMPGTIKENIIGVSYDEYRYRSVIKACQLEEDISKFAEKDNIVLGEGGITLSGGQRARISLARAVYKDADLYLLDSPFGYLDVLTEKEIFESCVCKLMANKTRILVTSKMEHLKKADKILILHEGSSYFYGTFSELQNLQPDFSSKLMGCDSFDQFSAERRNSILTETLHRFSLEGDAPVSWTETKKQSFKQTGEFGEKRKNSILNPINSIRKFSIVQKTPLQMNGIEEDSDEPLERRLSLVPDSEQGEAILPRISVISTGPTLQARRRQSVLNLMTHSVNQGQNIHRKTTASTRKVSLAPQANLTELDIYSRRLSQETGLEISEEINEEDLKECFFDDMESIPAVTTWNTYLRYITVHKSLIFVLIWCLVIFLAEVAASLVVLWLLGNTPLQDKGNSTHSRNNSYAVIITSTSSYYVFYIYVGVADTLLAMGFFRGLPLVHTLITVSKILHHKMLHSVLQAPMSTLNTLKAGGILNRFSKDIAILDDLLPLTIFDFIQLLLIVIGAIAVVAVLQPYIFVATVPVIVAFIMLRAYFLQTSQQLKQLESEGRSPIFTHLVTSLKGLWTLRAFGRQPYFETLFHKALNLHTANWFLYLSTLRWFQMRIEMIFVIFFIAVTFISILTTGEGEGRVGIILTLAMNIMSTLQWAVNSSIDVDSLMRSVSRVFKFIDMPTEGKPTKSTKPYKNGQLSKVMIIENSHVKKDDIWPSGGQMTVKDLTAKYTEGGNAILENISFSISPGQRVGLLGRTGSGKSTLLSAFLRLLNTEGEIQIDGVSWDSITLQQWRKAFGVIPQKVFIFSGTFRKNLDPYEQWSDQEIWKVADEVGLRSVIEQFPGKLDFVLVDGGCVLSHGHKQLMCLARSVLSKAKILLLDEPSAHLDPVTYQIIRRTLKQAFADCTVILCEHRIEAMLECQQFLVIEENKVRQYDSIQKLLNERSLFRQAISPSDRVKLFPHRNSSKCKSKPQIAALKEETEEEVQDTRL
Protocol: The compounds of formula I have marked effects on CFTR function. A representative number of compounds of formula I (Compounds IE1-IE4; Table I) were tested in comparison to cysteamine and amifostine through SPQ assay in F508delCFTR homozygous bronchial epithelial cell lines (CFBE41o-) transfected with F508delCFTR (FIG. 1) and in ex vivo in nasal cells collected by nasal brushing from CF patients (FIGS. 2A and B). Cell lines experiments. CFBE41l- and 16HBE14o-cells were cultured in Minimum Essential Medium (MEM) with Earle's salt, 200 mM L-Glutamine, 10% FBS and penicillin/streptomycin. CFBE41o-cells were transfected with AF508-CFTR at 37° C. and incubated for 18 h with cysteamine (250 μM) or different concentration of IE1.

F508delCFTR [2] = target: T2, F508delCFTR; assay: SPQ assay in primary nasal cells collected by nasal brushing from CF patients; format: cell-based; design: Freshly isolated brushed nasal epithelial cells were collected by nasal brushing; endogenous in cells; host or cells: primary nasal epithelial cells from F508del-homozygous CF patients
Protocol: The compounds of formula I have marked effects on CFTR function. A representative number of compounds of formula I (Compounds IE1-IE4; Table I) were tested in comparison to cysteamine and amifostine through SPQ assay in F508delCFTR homozygous bronchial epithelial cell lines (CFBE41o-) transfected with F508delCFTR (FIG. 1) and in ex vivo in nasal cells collected by nasal brushing from CF patients (FIGS. 2A and B). Freshly isolated brushed nasal epithelial cells were collected by nasal brushing, as previously described (21, 21) from 10 F508del-CFTR homozygous CF patients and from 5 non-CF healthy volunteers recruited from staff at the same time points. Both patients and healthy volunteers gave written informed consent. […] Brushes with cells were immediately transferred into RPMI 1640 medium (Invitrogen) containing 1% penicillin-streptomycin (Lonza, 17-602E), in 15-ml sterilized tubes. The tubes were incubated at 37° C. for 2 h on a thermo shaker, to remove all cell from brushes; the brushes were then removed and the cells centrifuged at 800×g (2000 rpm) for 20 min. The supernatant fractions were discarded and the cell pellet treated with […] of trypsin-versene (EDTA) solution (Lonza, 17-161) for 4 min at 37° C. to disaggregate possible cell clusters. Trypsin solution was inactivated by adding 3 ml of serum-free Bronchial Epithelial cell Growth Medium BEGM (Clonetics, Lonza, CC3170). After centrifugation at 800×g (2000 rpm) for 10 min, cells were placed in […] 25 flasks (Sarstedt Ltd, CS300) with 10 ml of BEGM medium. Nonspecific epithelial cells were removed during the daily cell washing and medium changes.

[3] = system: BECN1, (phospho)p42/44 MAPK; assay: Immunoblot of whole homogenates from intestinal and lung tissues of CftrF508del mice; format: in vivo
Description: CF mice homozygous for the delF508-CFTR mutation (abbreviated CftrF508del) in the 129/FVB outbred background (CftrtmlEUR, F508del, FVB/129) were obtained from Erasmus Medical Center Rotterdam, The Netherlands (CF coordinated action program EU FP6 LSHM-CT-2005-018932). These studies and procedures were approved by the local Ethics Committee for Animal Welfare (IACUC No 713). Young adult CF mice and their wild-type (wt) littermates were housed in static isolator cages at the animal care specific pathogen-free facility of Charles River (Calco, Italy). CftrF508del mice were treated with daily intraperitoneal injections of cysteamine (100 μl of 0.05 M in PBS) (Sigma Aldrich, M9768) or IE1 (100 μl of 0.075-0.05-0.025-0.0125 M, in PBS) for 5 d or with cysteamine (5 d) or IE1 different concentrations followed by 10 d or 20 d of PBS alone (n=5 mice per group) (19,20).
The proteins of cell lines lysates or lung or small intestine homogenates, obtained from treated and untreated cells or mice, were quantified by a Bio-Rad protein assay to ensure equal protein loading before immunoblot analysis. Fifty micrograms of proteins were loaded in each lane. […]

In the case of `NCCCS` [IE1, 3-aminopropane-1-thiol], the “Ability to inhibit the PDI activity of TG2” value (TG2) is reported as “confirmed”, the “Concentration lower than cysteamine for equal restoration of CFTR function” value (F508delCFTR [1]; 0.1 μM vs 250 μM) is reported as “more than 2500 fold” and the “% Function vs 16HBE” value (F508delCFTR [1]; 0.1 μM, CFBE41o- transfected with F508delCFTR) is reported as 72%. The “CFTR function after wash out with EGCG added” value (F508delCFTR [1]; 48 h after wash out, epigallocatechin gallate added, CFBE cells) was “effect is preserved”, the “CFTR function after wash out” value (F508delCFTR [1]; 48 h after wash out, CFBE cells) was “loses its efficacy” and the “CFTR function after wash out” value (F508delCFTR [1]; up to 24 h after wash out, CFBE cells) was “able to maintain CFTR function”. The “CFTR function after wash out with EGCG added” value (F508delCFTR [2]; 48 h after wash out, epigallocatechin gallate added, nasal primary cells) was “effect is preserved”, the “CFTR function after wash out” value (F508delCFTR [2]; 48 h after wash out, nasal primary cells) was “loses its efficacy” and the “Efficacy on CFTR function compared with VX-809” value (F508delCFTR [2]; VX-809 3 μM, FIG. 2A) was “more efficacious than VX-809”. For the same molecule, the “CFTR function after wash out” value (F508delCFTR [2]; up to 24 h after wash out, nasal cells) was “able to maintain CFTR function”, the “BECN1 in whole homogenates” value [3] was “able to restore BECN1” and the “Biomarkers (phospho)p42/44 MAPK in whole homogenates” value [3] was “decrease biomarkers (phospho)p42/44 MAPK”.
